This note sets out measurements from patent EP4759817A1, “HETEROARYL COMPOUND, PREPARATION METHOD THEREFOR, AND USE THEREOF IN MEDICINE” (Jiangsu Hengrui Pharmaceuticals Co., Ltd., priority 2023, dated 2025).

Each structure is given as a SMILES string.

Assay [1] addresses T1, Recombinant human PRMT5: MEP50 protein (Homo sapiens, UniProt O14744).
T1 construct: purchased active motif 31521
Put plainly: Inhibitory activity against human PRMT5 enzymatic activity (HTRF quantification of SAH, +MTA). The assay is classed as biochemical. The conditions noted are these: +1 µM MTA; histone H4 peptide substrate (1-21), SAM; 37°C 120 min. The method, then:
• 1. Recombinant human PRMT5: MEP50 protein (active motif, 31521) • 2. EPIgeneous Methyltransferase kit (cisbio, 62SAHPEH) • 3. 96-well plate (Sangon Biotech, F610960-0010) • 4. 384-well white plate (Perkin Elmer, 6007290) • 5. 1 M Tris-HCl [pH 8.5] (Sangon Biotech, B548141) • 6. Histone H4 peptide substrates (1-21) (BPS bioscience, 52014) • 7. 5'-deoxy-5'-(methylthio)adenosine (Aladdin, D168979-25 mg) • 8. Tween-20 (Sangon Biotech, A100777-0500) • 9. DMSO (Sigma, D2650) • 10. Incubator (Shanghai Boxun Medical Biological Instrument Corp.) • 11. PHERAstar FS microplate reader (BMG Labtech)
PRMT5 can induce the transfer of a methyl group from S-adenosylmethionine (SAM) to a histone H4 peptide substrate (1-21), generating S-adenosylhomocysteine (SAH). In this experiment, the amount of SAH produced in the reaction is quantified using a Homogeneous Time-Resolved Fluorescence (HTRF) method to evaluate the inhibitory activity of compounds against PRMT5 enzymatic activity.
The sample diluent containing (or not containing) 1 µM 5 '-deoxy-5' - (methylthiyl) adenosine (MTA) was prepared using the EPIgeneous Diluent Buffer from the EPIgeneous Methyltransferase kit. With reference to the instructions, SAM and SAH standards were serially diluted and dispensed at 10 µL per well (in duplicate for each concentration). 2 µL of EPIgeneous Detection Buffer 1 was added to each well, and the plate was centrifuged, shaken to mix thoroughly, and placed at room temperature for 10 min. The SAH d2 Reagent was diluted 32-fold with EPIgeneous Detection Buffer 2, and 4 µL of the diluted SAH-d2 solution was added to each well. The plate was centrifuged and shaken for 2 min to mix thoroughly. The SAH Tb Cryptate Antibody was diluted 50-fold in EPIgeneous Detection Buffer 2. 4 µL of the diluted Tb Cryptate Antibody solution was added to each well, and the plate was centrifuged, shaken for 2 min to mix thoroughly, and left to stand at room temperature for 60 min, followed by reading on a PHERAstar FS microplate reader to obtain the 665/620 ratio. Plotting SAH concentration against the ratio to generate an x-y curve yields a corresponding calculation formula.
Reaction buffer (1×): 50 mM Tris-HCl [pH 8.5], 1 mM DTT, 0.005% Tween-20.
Compound preparation: a 20 mM solution of test compound in 100% DMSO was diluted in 100% DMSO to 1 mM as the highest concentration, and the solution at this concentration was then subjected to a 10-point, 3-fold serial dilution in 100% DMSO in a 96-well plate. Wells containing 100% DMSO served as the blank control. The above-described serially diluted compounds and the 100% DMSO were diluted 20-fold with the reaction buffer to prepare 5× compound solutions, which were mixed thoroughly for use.
The PRMT5:MEP50 was diluted in the reaction buffer to a final concentration of 12.5 nM. Then, 4 µL of the 12.5 nM PRMT5:MEP50 solution was added to each well of a 384-well plate. Wells containing 4 µL of the reaction buffer served as the negative control wells. 2 µL of the 5× compound solution was added to each well. For the negative control wells (no enzyme, no compound) and the positive control wells (no compound), 2 µL of 5% DMSO was added. The plate was sealed with a membrane, centrifuged, shaken for 2 min to mix thoroughly, and placed at room temperature for 20 min.
Preparation of substrate mixture solution: The substrate mixture solution containing 1.5 µM histone H4 peptide substrate (1-21) and 2.5 µM SAM, or 1.5 µM histone H4 peptide substrate (1-21), 2.5 µM SAM and 2.5 µM MTA was prepared in the reaction buffer.
The reaction was initiated by adding 4 µL of the substrate mixture solution (-/+ MTA) to each well. The plate was sealed with a membrane, centrifuged, shaken for 2 min to mix thoroughly, and incubated at 37°C for 120 min in a constant temperature incubator.
Detection: The detection was performed by using the EPIgeneous Methyltransferase kit. […]

Another assay relates to HCT116 MTAP-/- cells. Briefly: HCT116 MTAP-/- cell proliferation assay (CellTiter-Glo, 10 days). The assay is classed as cell-based. The conditions noted are these: growth inhibition, CTG assay Day 10. An excerpt: (§1) • I. Experimental materials and instruments • 1. HCT116 cell line (Nanjing Kebai Biotechnology Co., Ltd., CBP60028) • 2. HCT116 MTAP-/- cell line (Nanjing Kebai Biotechnology Co., Ltd., CBP75002) • 3. DMSO (Sigma, D2650) • 4. McCoy's 5A medium (Gibco, 16600-082) • 5. Foetal bovine serum (FBS) (Gibco, 10091148) • 6. Phosphate buffered saline (DPBS) pH 7.4 (Gibco, 14190-144) • 7. Pen strep (PS) (Gibco, 15140-122) • 8. 0.25% Typsin-EDTA (1×) (Gibco, 25200-072) • 9. CellTiter-Glo® Luminescent Cell Viability Assay (Promega, G7572) • 10. 96-well round-bottom plate (JET, TCP002096) • 11. 96-well black clear bottom plate (Hangzhou Xinyou Biotechnology Co., Ltd., 060096) • 12. 1.2 mL 96-well deep well plate, clear, sterile, square-well, V-bottom (Titan, 02089063) • 13. 15-mL centrifuge tube (Titan) • 14. Biosafety cabinet (Thermo, 1300AII) • 15. Cell counter (Countstar, IC1000) • 16. Incubator (Thermo, I160) • 17. Centrifuge (Beckman coulter, Allegra X-12 centrifuge) • 18. PHERAstar FS microplate reader (BMG Labtech) • II. Experimental procedure • 1. Cell plating (Day 0) • a) The cell morphology was observed under a microscope to ensure confluence reached approximately 90%. • b) The cell supernatant was aspirated, the cells were washed once with PBS, and then the PBS was removed; and the cells were digested by adding an appropriate amount of trypsin, and left to stand at 37°C for 3 minutes. • c) The digestion was terminated by adding an equal volume of McCoy's 5A medium containing 10% FBS, and the cell suspension was collected and centrifuged at 300 g for 3 minutes; and the cells were resuspended in an appropriate amount of fresh medium. • d) The resuspended cell suspension was taken for counting. • e) The cell suspension was diluted to 1e4/mL using McCoy's 5A medium containing 10% FBS, and seeded at 50 µL per well, corresponding to 500 cells/well for HCT116 and 500 cells/well for HCT116 MTAP-/-. • f) The cell plate was placed in a 37°C, 5% carbon dioxide incubator and incubated overnight. • 2. Compound treatment (Day 1) • a) Each compound was serially diluted in DMSO to generate a 9-point concentration gradient (starting concentration: 10000 µM, 3-fold dilution; the highest concentration may be adjusted individually based on IC50 of different compounds); for example, in a 96-well round-bottom compound-dilution plate, 5 µL of the compound was sequentially diluted into 10 µL of DMSO. • b) Each concentration point of every compound was then diluted 250-fold into the corresponding volume of McCoy's 5A medium. • c) To each cell plate, 50 µL of the diluted compound solution as described above was added sequentially to the cell supernatant (50 µL/well). • d) The compound-treated cell plate was placed in a 37°C, 5% carbon dioxide incubator and incubated. • 3. Re-digestion, re-plating and compound treatment (Day 5) • a) After 5 days of compound treatment, the compound-containing medium was aspirated, and the cells were rinsed once with PBS (100 µL/well); and the PBS was removed immediately. • b) The cells were digested by adding 25 µL of trypsin and incubated at 37°C for 3 minutes, and then the digestion was terminated by adding 175 µL/well of McCoy's 5A medium containing 10% FBS. • c) The cells were mixed thoroughly using a pipette, and re-plated at 1 : 20; and specifically, 10 µL of the cell suspension was aspirated to a new 96-well plate (pre-filled with 40 µL of McCoy's 5A medium containing 10% FBS. • d) Compounds were prepared and added according to steps a) to c) in Section 2, with 50 µL added per well. • e) The compound-treated cell plate was placed in a 37°C, 5% carbon dioxide incubator and incubated. • 4. […]

The test system of a further assay is HCT116 cells. Briefly: HCT116 cell proliferation assay (CellTiter-Glo, 10 days). The assay is classed as cell-based. Conditions: growth inhibition, CTG assay Day 10.
Description: as §1, with “3.” for “3. Re-digestion, re-plating and compound treatment (Day 5) • a) After 5 days of compound treatment, the compound-containing medium was aspirated, and the cells were rinsed once with PBS (100 µL/well); and the PBS was removed immediately. • b) The cells were digested by adding 25 µL of trypsin and incubated at 37°C for 3 minutes, and then the digestion was terminated by adding 175 µL/well of McCoy's 5A medium containing 10% FBS. • c) The cells were mixed thoroughly using a pipette, and re-plated at 1 : 20; and specifically, 10 µL of the cell suspension was aspirated to a new 96-well plate (pre-filled with 40 µL of McCoy's 5A medium containing 10% FBS. • d) Compounds were prepared and added according to steps a) to c) in Section 2, with 50 µL added per well. • e) The compound-treated cell plate was placed in a 37°C, 5% carbon dioxide incubator and incubated. • 4.”

T1 sequence (O14744 whole entry): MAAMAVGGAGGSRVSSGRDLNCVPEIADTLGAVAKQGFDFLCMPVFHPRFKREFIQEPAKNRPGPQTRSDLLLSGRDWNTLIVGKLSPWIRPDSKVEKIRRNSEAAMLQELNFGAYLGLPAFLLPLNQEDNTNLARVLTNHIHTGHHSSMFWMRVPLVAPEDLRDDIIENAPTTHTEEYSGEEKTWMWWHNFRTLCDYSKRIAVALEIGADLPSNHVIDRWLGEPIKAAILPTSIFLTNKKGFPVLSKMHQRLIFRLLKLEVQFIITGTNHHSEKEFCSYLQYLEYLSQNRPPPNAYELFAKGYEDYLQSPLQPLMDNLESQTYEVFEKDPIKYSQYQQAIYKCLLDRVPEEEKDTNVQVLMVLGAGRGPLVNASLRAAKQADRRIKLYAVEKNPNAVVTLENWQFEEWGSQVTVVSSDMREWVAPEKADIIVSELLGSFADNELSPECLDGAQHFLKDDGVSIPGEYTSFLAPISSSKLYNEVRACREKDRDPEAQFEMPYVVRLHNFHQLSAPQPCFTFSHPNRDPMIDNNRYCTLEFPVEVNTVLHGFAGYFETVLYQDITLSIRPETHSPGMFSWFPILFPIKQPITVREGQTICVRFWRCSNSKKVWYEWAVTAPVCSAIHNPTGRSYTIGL
T1 sequence (Q9BQA1 whole entry partner): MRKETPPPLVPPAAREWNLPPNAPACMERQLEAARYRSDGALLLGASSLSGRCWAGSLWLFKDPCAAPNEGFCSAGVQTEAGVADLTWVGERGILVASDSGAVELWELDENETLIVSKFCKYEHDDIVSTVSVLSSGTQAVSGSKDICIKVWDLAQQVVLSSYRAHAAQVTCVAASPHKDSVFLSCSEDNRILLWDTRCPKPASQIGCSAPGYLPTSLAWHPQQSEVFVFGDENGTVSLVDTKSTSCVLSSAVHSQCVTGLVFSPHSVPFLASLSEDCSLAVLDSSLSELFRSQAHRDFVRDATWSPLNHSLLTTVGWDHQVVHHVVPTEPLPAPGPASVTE

With `[2H]C([2H])([2H])n1ncc(-c2ccc3c(=O)[nH]nc(CN)c3c2)c1-c1c(F)c(Cl)c2c(c1C#N)N1CCC[C@H]1CO2` (atropisomer, axis not shown; (M)) [Compound 13-p1, (M)-(S)-8-(4-(4-(aminomethyl)-1-oxo-1,2-dihydrophthalazin-6-yl)-1-(methyl-d3)-1H-pyrazol-5-yl)-6-chloro-7-fluoro-2,3,3a,4-tetrahydro-1H-benzo[b]pyrrolo[1,2-d][1,4]oxazine-9-carbonitrile], the IC50 is 2.8 nM in assay [1] and 15 nM with HCT116 MTAP-/- cells (Homo sapiens, HCT-116, 240 h).

In the case of `[2H]C([2H])([2H])n1ncc(-c2ccc3c(=O)[nH]nc(CN)c3c2)c1-c1c(F)cc2c(c1C#N)O[C@@H]1CC[C@@H]1O2` (single isomer, unassigned) [Compound 2-p2], the IC50 was determined as 7.01 nM in assay [1]; 13.5 nM in the assay with HCT116 MTAP-/- cells (Homo sapiens, HCT-116, 240 h); 2370 nM with HCT116 cells (Homo sapiens, HCT-116, 240 h).

For `[2H]C([2H])([2H])n1ncc(-c2ccc3c(=O)[nH]nc(CN)c3c2)c1-c1c(F)c(Cl)c2c(c1C#N)O[C@H]1CC[C@H]1O2` (atropisomer, axis not shown; (M)) [Compound 11-p3, (M)-(2aS,8aR)-5-(4-(4-(aminomethyl)-1-oxo-1,2-dihydrophthalazin-6-yl)-1-(methyl-d3)-1H-pyrazol-5-yl)-7-chloro-6-fluoro-1,2,2a,8a-tetrahydrobenzo[b]cyclobuta[e][1,4]dioxine-4-carbonitrile], the 50% inhibitory concentration (IC50) in assay [1] is 5.4 nM; with HCT116 MTAP-/- cells (Homo sapiens, HCT-116, 240 h), 4.6 nM.

On to `Cn1ncc(-c2ccc3c(=O)[nH]nc(CN)c3c2)c1-c1c(F)cc2c(c1C#N)O[C@@H]1CC[C@@H]1O2` (atropisomer, axis not shown; (M)) [Compound 1-p2, (M)-(2aR,8aS)-5-(4-(4-(aminomethyl)-1-oxo-1,2-dihydrophthalazin-6-yl)-1-methyl-1H-pyrazol-5-yl)-6-fluoro-1,2,2a,8a-tetrahydrobenzo[b]cyclobuta[e][1,4]dioxine-4-carbonitrile], for which the IC50 in the assay with HCT116 MTAP-/- cells was 13.3 nM; in the assay on HCT116 cells, 2350 nM.
